{
  "source": "EPA's ToxRefDB 2",
  "key": {"mouse [1]": {"test_system": "mouse", "details": "Sub-acute repeat dose toxicity; b6c3f1; Oral; Gavage/Intubation; dose end: 16 day; group: systemic; systemic / in life observation / clinical signs / altered breathing rate + systemic / in life observation / clinical signs / ataxia + …"}, "mouse [2]": {"test_system": "mouse", "details": "Subchronic oral toxicity in rodents, b6c3f1, Gavage/Intubation, dose end: 13 week, group: systemic"}, "mouse [3]": {"test_system": "mouse", "details": "Carcinogenicity, b6c3f1, Oral, Gavage/Intubation, dose end: 103 week, group: systemic"}, "rat [4]": {"test_system": "rat", "details": "Carcinogenicity; fischer; Oral; Gavage/Intubation; dose end: 103 week; group: systemic; systemic / pathology microscopic / kidney / nephropathy + systemic / pathology microscopic / liver / degeneration + systemic / pathology …"}, "mouse [5]": {"test_system": "mouse", "details": "Chronic toxicity, cd1, Oral, Feed, dose end: 109 week, group: systemic"}, "rat [6]": {"test_system": "rat", "details": "Subchronic oral toxicity in rodents, fischer, Gavage/Intubation, dose end: 13 week, group: systemic"}, "rat [7]": {"test_system": "rat", "details": "Sub-acute repeat dose toxicity; fischer; Oral; Gavage/Intubation; dose end: 16 day; group: systemic; systemic / in life observation / clinical signs / altered breathing rate + systemic / in life observation / clinical signs / ataxia + …"}, "rat [8]": {"test_system": "rat", "details": "Chronic toxicity, sprague dawley, Oral, Feed, dose end: 110 week"}, "dog [9]": {"test_system": "dog", "details": "Chronic toxicity; beagle; Oral; Feed; dose end: 26 week; group: systemic; systemic / in life observation / body weight / body weight + systemic / clinical chemistry / [other] / [other] + systemic / clinical …"}, "dog [10]": {"test_system": "dog", "details": "Chronic toxicity, beagle, Oral, Feed, dose end: 12 month"}, "mouse [11]": {"test_system": "mouse", "details": "Carcinogenicity, b6c3f1, Oral, Feed, dose end: 24 month, group: systemic"}, "rat [12]": {"test_system": "rat", "details": "Combined chronic toxicity/carcinogenicity, other, Oral, Feed, dose end: 106 week"}, "rabbit": {"test_system": "rabbit", "details": "Prenatal developmental toxicity study; chinchilla; Oral; Gavage/Intubation; dose end: 18 GD; group: maternal; reproductive / reproductive performance / postimplantation loss / postimplantation loss + systemic / in life observation / body weight / …"}, "rat [13]": {"test_system": "rat", "details": "Multigenerational reproductive toxicity study, other, Oral, Feed, dose end: 3 generation, group: parental"}, "[14]": {"details": "systemic / organ weight / liver / absolute + systemic / organ weight / liver / relative to body weight + systemic / pathology microscopic / …"}, "[15]": {"details": "systemic / pathology microscopic / liver / eosinophilic focus + systemic / pathology microscopic / liver / syncytial alteration"}, "[16]": {"details": "systemic / pathology microscopic / liver / eosinophilic focus + systemic / pathology microscopic / liver / syncytial alteration + systemic…"}, "[17]": {"details": "systemic / in life observation / body weight / body weight gain"}, "[18]": {"details": "systemic / organ weight / liver / nos"}, "[19]": {"details": "group: cholinesterase, cholinesterase / cholinesterase / cholinesterase / plasma cholinesterase (che)"}, "[20]": {"details": "group: systemic, systemic / clinical chemistry / cholesterol / cholesterol"}, "[21]": {"details": "group: systemic, systemic / clinical chemistry / cholesterol / cholesterol + systemic / clinical chemistry / glucose / glucose + systemic / clinical …"}, "[22]": {"details": "group: cholinesterase, cholinesterase / cholinesterase / cholinesterase / erythrocyte cholinesterase (che) + cholinesterase / cholinesterase / cholinesterase / …"}, "[23]": {"details": "group: systemic, systemic / clinical chemistry / cholesterol / cholesterol + systemic / in life observation / clinical signs / vomitting"}, "[24]": {"details": "systemic / clinical chemistry / alanine aminotransferase (alt/sgpt) / alanine aminotransferase (alt/sgpt) + systemic / organ weight / liver…"}, "[25]": {"details": "systemic / clinical chemistry / protein / protein"}, "[26]": {"details": "group: cholinesterase, cholinesterase / cholinesterase / cholinesterase / plasma cholinesterase (che) + cholinesterase / cholinesterase / cholinesterase / …"}, "[27]": {"details": "group: systemic, systemic / in life observation / body weight / body weight + systemic / in life observation / food consumption / food consumption"}, "[28]": {"details": "group: systemic, systemic / in life observation / body weight / body weight + systemic / in life observation / food consumption / food consumption + systemic…"}, "[29]": {"details": "systemic / in life observation / mortality / mortality + systemic / pathology microscopic / liver / hypertrophy + systemic / pathology …"}},
  "data": [
    {"compound": "O=c1ccc2ccccc2o1", "note": "[Coumarin]", "values": [
      {"measurement": "LEL", "setting": "mouse [1]", "result": 300, "unit": "mg/kg/day"},
      {"measurement": "LOAEL", "setting": "mouse [1]", "result": 300, "unit": "mg/kg/day"},
      {"measurement": "NEL", "setting": "mouse [1]", "result": 150, "unit": "mg/kg/day"},
      {"measurement": "NOAEL", "setting": "mouse [1]", "result": 150, "unit": "mg/kg/day"},
      {"measurement": "LEL", "setting": "mouse [2]; systemic / hematology / mean corpuscular (cell) volume (mcv) / mean corpuscular (cell) volume (mcv) + systemic / hematology / mean …", "result": 38, "unit": "mg/kg/day"},
      {"measurement": "NEL", "setting": "mouse [2]; systemic / in life observation / body weight / body weight + systemic / in life observation / body weight / body weight gain + systemic / …", "result": 19, "unit": "mg/kg/day"},
      {"measurement": "LOAEL", "setting": "mouse [2]; [14]", "result": 300, "unit": "mg/kg/day"},
      {"measurement": "NOAEL", "setting": "mouse [2]; [14]", "result": 150, "unit": "mg/kg/day"},
      {"measurement": "LOAEL", "setting": "mouse [3]; [15]", "result": 50, "unit": "mg/kg/day"},
      {"measurement": "NOAEL", "setting": "mouse [3]; [15]", "result": "< 50", "unit": "mg/kg/day"},
      {"measurement": "LEL", "setting": "mouse [3]; [16]", "result": 50, "unit": "mg/kg/day"},
      {"measurement": "NEL", "setting": "mouse [3]; [16]", "result": "< 50", "unit": "mg/kg/day"},
      {"measurement": "LEL", "setting": "rat [4]", "result": 25, "unit": "mg/kg/day"},
      {"measurement": "LOAEL", "setting": "rat [4]", "result": 25, "unit": "mg/kg/day"},
      {"measurement": "NEL", "setting": "rat [4]", "result": "< 25", "unit": "mg/kg/day"},
      {"measurement": "NOAEL", "setting": "rat [4]", "result": "< 25", "unit": "mg/kg/day"},
      {"measurement": "LEL", "setting": "mouse [5]; [17]", "result": 85.8, "unit": "mg/kg/day"},
      {"measurement": "NEL", "setting": "mouse [5]; systemic / in life observation / body weight / body weight gain + systemic / in life observation / food consumption / food efficiency", "result": 26.2, "unit": "mg/kg/day"},
      {"measurement": "LOAEL", "setting": "mouse [5]; [18]", "result": "> 271", "unit": "mg/kg/day"},
      {"measurement": "NOAEL", "setting": "mouse [5]; [18]", "result": "≥ 271", "unit": "mg/kg/day"},
      {"measurement": "LEL", "setting": "rat [6]; systemic / hematology / erythrocyte (rbc) count differential / erythrocyte (rbc) + systemic / hematology / mean corpuscular (cell) volume (…", "result": 75, "unit": "mg/kg/day"},
      {"measurement": "LOAEL", "setting": "rat [6]; [14]", "result": 150, "unit": "mg/kg/day"},
      {"measurement": "NEL", "setting": "rat [6]; [14]", "result": 38, "unit": "mg/kg/day"},
      {"measurement": "NOAEL", "setting": "rat [6]; [14]", "result": 75, "unit": "mg/kg/day"},
      {"measurement": "LEL", "setting": "rat [7]", "result": 400, "unit": "mg/kg/day"},
      {"measurement": "LOAEL", "setting": "rat [7]", "result": "> 400", "unit": "mg/kg/day"},
      {"measurement": "NEL", "setting": "rat [7]", "result": 200, "unit": "mg/kg/day"},
      {"measurement": "NOAEL", "setting": "rat [7]", "result": "≥ 400", "unit": "mg/kg/day"},
      {"measurement": "LEL", "setting": "rat [8]; [19]", "result": 16, "unit": "mg/kg/day"},
      {"measurement": "LOAEL", "setting": "rat [8]; [19]", "result": "> 283", "unit": "mg/kg/day"},
      {"measurement": "NEL", "setting": "rat [8]; [19]", "result": "< 16", "unit": "mg/kg/day"},
      {"measurement": "NOAEL", "setting": "rat [8]; [19]", "result": "≥ 283", "unit": "mg/kg/day"},
      {"measurement": "LEL", "setting": "rat [8]; [20]", "result": 13, "unit": "mg/kg/day"},
      {"measurement": "NEL", "setting": "rat [8]; [20]", "result": "< 13", "unit": "mg/kg/day"},
      {"measurement": "LOAEL", "setting": "rat [8]; [21]", "result": "> 234", "unit": "mg/kg/day"},
      {"measurement": "NOAEL", "setting": "rat [8]; [21]", "result": "≥ 234", "unit": "mg/kg/day"}
    ]},
    {"compound": "CNC(=O)Oc1ccccc1OC(C)C", "note": "[Propoxur]", "values": [
      {"measurement": "LEL", "setting": "dog [9]", "result": 1.75, "unit": "mg/kg/day"},
      {"measurement": "LOAEL", "setting": "dog [9]", "result": "> 1.75", "unit": "mg/kg/day"},
      {"measurement": "NEL", "setting": "dog [9]", "result": "< 1.75", "unit": "mg/kg/day"},
      {"measurement": "NOAEL", "setting": "dog [9]", "result": "≥ 1.75", "unit": "mg/kg/day"},
      {"measurement": "LEL", "setting": "dog [10]; [22]", "result": 781, "unit": "mg/kg/day"},
      {"measurement": "LOAEL", "setting": "dog [10]; [22]", "result": "> 781", "unit": "mg/kg/day"},
      {"measurement": "NEL", "setting": "dog [10]; [22]", "result": 186, "unit": "mg/kg/day"},
      {"measurement": "NOAEL", "setting": "dog [10]; [22]", "result": "≥ 781", "unit": "mg/kg/day"},
      {"measurement": "LOAEL", "setting": "dog [10]; [20]", "result": 62.4, "unit": "mg/kg/day"},
      {"measurement": "NOAEL", "setting": "dog [10]; [20]", "result": "< 62.4", "unit": "mg/kg/day"},
      {"measurement": "LEL", "setting": "dog [10]; [23]", "result": 62.4, "unit": "mg/kg/day"},
      {"measurement": "NEL", "setting": "dog [10]; [23]", "result": "< 62.4", "unit": "mg/kg/day"},
      {"measurement": "LOAEL", "setting": "mouse [11]; [24]", "result": 472, "unit": "mg/kg/day"},
      {"measurement": "NOAEL", "setting": "mouse [11]; [24]", "result": 114, "unit": "mg/kg/day"},
      {"measurement": "LEL", "setting": "mouse [11]; [25]", "result": 150, "unit": "mg/kg/day"},
      {"measurement": "NEL", "setting": "mouse [11]; [25]", "result": "< 150", "unit": "mg/kg/day"},
      {"measurement": "NEL", "setting": "rat [12]; [19]", "result": 50, "unit": "mg/kg/day"},
      {"measurement": "LEL", "setting": "rat [12]; [26]", "result": 250, "unit": "mg/kg/day"},
      {"measurement": "LOAEL", "setting": "rat [12]; [26]", "result": "> 250", "unit": "mg/kg/day"},
      {"measurement": "NOAEL", "setting": "rat [12]; [26]", "result": "≥ 250", "unit": "mg/kg/day"},
      {"measurement": "LEL", "setting": "rat [12]; [27]", "result": 10, "unit": "mg/kg/day"},
      {"measurement": "NEL", "setting": "rat [12]; [27]", "result": "< 10", "unit": "mg/kg/day"},
      {"measurement": "LOAEL", "setting": "rat [12]; [28]", "result": 250, "unit": "mg/kg/day"},
      {"measurement": "NOAEL", "setting": "rat [12]; [28]", "result": 50, "unit": "mg/kg/day"},
      {"measurement": "LEL", "setting": "rabbit", "result": 30, "unit": "mg/kg/day"},
      {"measurement": "LOAEL", "setting": "rabbit", "result": 30, "unit": "mg/kg/day"},
      {"measurement": "NEL", "setting": "rabbit", "result": 10, "unit": "mg/kg/day"},
      {"measurement": "NOAEL", "setting": "rabbit", "result": 10, "unit": "mg/kg/day"}
    ]},
    {"compound": "ClC1C(Cl)C(Cl)C(Cl)C(Cl)C1Cl", "note": "(stereo not drawn) [beta-Hexachlorocyclohexane]", "values": [
      {"measurement": "LEL", "setting": "rat [13]; [17]", "result": 6.25, "unit": "mg/kg/day"},
      {"measurement": "NEL", "setting": "rat [13]; [17]", "result": "< 6.25", "unit": "mg/kg/day"},
      {"measurement": "LOAEL", "setting": "rat [13]; [29]", "result": "> 12.5", "unit": "mg/kg/day"},
      {"measurement": "NOAEL", "setting": "rat [13]; [29]", "result": "≥ 12.5", "unit": "mg/kg/day"}
    ]}
  ]
}
